From publication PMC8929364, “Metopimazine is primarily metabolized by a liver amidase in humans” (Pharmacology Research & Perspectives, 2021)
Where “and” joins values, the source holds several entries; their conditions need not be identical. Identical values can stand only once. Like-named read-outs stand apart in the source and are kept apart here.

Key:
[1] = Clinical study NG100-101: plasma pharmacokinetics of metopimazine and metabolites after a single oral 60 mg dose; assay type: in vivo, healthy adult subjects (human); settings: for % Drug‐related material MPZ / % Drug‐related material MPZA: based on AUClast; for % Drug‐related material MPZ / percent of total circulating drug‐related material / % Drug‐related material MPZA: single 60 mg dose; for Tmax / AUC(0-t) / Cmax: both sexes, human, po, 60 mg; for percent of total circulating drug‐related material: rough estimate based on AUClast
Description: The clinical study was conducted at Biotrial Rennes, in accordance with the Declaration of Helsinki. The study (NG100‐101) was a double‐blind, placebo‐ controlled, ascending single‐ and multiple‐dose study of the safety, tolerability, and pharmacokinetics of metopimazine administered orally to healthy adult subjects. The study protocol, informed consent form, and appropriate related documents were approved by the institutional review board, and all subjects provided written informed consent prior to participation in the study. […] In the morning, after at least 10 h of fasting overnight, eight healthy adult subjects (male or female aged 18 to 45), were orally administered metopimazine (or a matching placebo). […] Blood samples were collected at the following time points: predose and 0.25, 0.5, 0.75, 1, 1.25, 1.5, 2, 3, 4, 6, 8, 12, 18, and 24 h postdose; plasma samples were obtained by centrifugation of the blood samples. A comprehensive safety and pharmacokinetic analysis was performed for each cohort for the SAD and MAD parts of the study and will be presented elsewhere. A fit‐for‐purpose discovery method was used to analyze 4 subjects from the highest single dosed cohort for the presence of metabolites. Plasma concentrations of metopimazine, metopimazine acid and metopimazine sulfoxide were quantified using LC–MS/MS methods. Venous blood samples (6 ml) for the determination of plasma concentrations of MPZ and metabolites (MPZA and MPZS) were drawn by direct venipuncture or via an intravenous catheter into K2EDTA Vacutainer® tubes. It was important to avoid hemolysis during blood collection. After collection, the blood samples were centrifuged within 60 min, at 3000 rotations per minute for 10 min at 5°C. The resulting plasma was separated into 2 equal aliquots of 1000 µl (aliquots A & B) and transferred to polypropylene tubes, which were labeled, frozen within 120 min of blood collection and stored at –70°C until required for bioanalysis. Immediately prior to bioanalysis, samples were thawed and a 200 µl aliquots were removed and analytes extracted using acetonitrile protein precipitation. The extracted samples were analyzed twice, once for quantification of MPZ and MPZA and again for MPZS quantification as described below. An MRM LC–MS/MS method was developed for MPZ and metopimazine acid (MPZA) in rat, dog, and human plasma. The method was run in reverse phase in positive ion mode. […] D6‐isotopically labeled internal standards were used for each analyte. The following m/z transitions were monitored: metopimazine 446.3 → 141.1 and metopimazine acid 447.2 → 142.1. […] An MRM LC–MS/MS method was developed to look for metopimazine sulfoxide (MPZS) in human plasma. The method was run in reverse phase in positive ion mode. The system was identical to what was described above except that a slightly longer column was used, a Supelco Discovery HS F5 100 × 4.0 mm (3 µm) column (Sigma‐Aldrich). A D6‐isotopically labeled internal standards was used for MPS and the m/z transition monitored was 462.3 → 98.1. A calibration curve was generated for the quantification of MPZS in human plasma. Noncompartmental Pharmacokinetics analysis was performed in Phoenix 64 Winnonlin version 8.1.

[2] = Rat PK study, single oral dose of metopimazine; assay type: in vivo, Sprague Dawley rats; settings: Sprague Dawley, plasma, 45 mg/kg metopimazine single oral dose, mean (SD)
Description: The pharmacokinetics of metopimazine (parent) and metopimazine acid (metabolite) were evaluated in male and female Sprague Dawley rats following a single oral dose of 45 mg/kg metopimazine (free base). Three animals per sex in each dose group were sampled at each timepoint after administration (0.25, 0.5, 1, 2, 4, 8, 12, and 24 h). The rats (rattus norvegicus) were obtained from Envigo RMS, Inc. and were 2 months old. Animals were weighed prior to each dose administration for the purpose of dose calculation. Whole venous blood samples of approximately 0.5 ml were collected from a peripheral vein of animals for determination of exposure to metopimazine and metopimazine acid. Three animals per sex were sampled at each timepoint. Samples were collected in tubes containing K2EDTA with protease inhibitor cocktail (Sigma, # P8340, at ratio 1:100) and placed on ice until processed for plasma by centrifugation under refrigeration for at least 10 min at 1912 x g. After centrifugation, supernatant was removed and stored frozen in a −70°C freezer until analyzed by LC–MS/MS.
(§1) An MRM LC–MS/MS method was developed for MPZ and metopimazine acid (MPZA) in rat, dog, and human plasma. The method was run in reverse phase in positive ion mode. […] D6‐isotopically labeled internal standards were used for each analyte. The following m/z transitions were monitored: metopimazine 446.3 → 141.1 and metopimazine acid 447.2 → 142.1.
(§2) Noncompartmental Pharmacokinetics analysis was performed in Phoenix 64 Winnonlin version 8.1.

[3] = Dog PK study, single oral dose of metopimazine; assay type: in vivo, beagle dogs; settings: beagle, plasma; Dog (male), 10 mg/kg metopimazine single oral dose, mean (SD)
Description: The pharmacokinetics of metopimazine (parent) and metopimazine acid (metabolite) were evaluated in three male, beagle dogs following a single oral dose of 10 mg/kg metopimazine (free base). The dogs were obtained from Marshall BioResources. Animals were weighed prior to each dose administration for the purpose of dose calculation. Metopimazine was administered in size 13 gelatin capsules. Whole venous blood samples of approximately 1.0 ml were collected from a peripheral vein of all animals for determination of metopimazine and metopimazine acid. Samples were collected at the following timepoints: 0.25, 0.5, 1, 2, 4, 8, 12, and 24 h after test article administration. All animals were sampled at each timepoint. Samples were collected in tubes containing K2EDTA and placed on ice until processed for plasma by centrifugation under refrigeration for at least 10 min at 1912 x g. After centrifugation, the supernatant was removed and stored frozen in a −70°C freezer until analyzed by LC–MS/MS.
as §1, §2

[4] = Incubation of MPZ with pooled human liver microsomes (disappearance, metabolite formation); assay type: in vitro ADME; settings: for Peak area at time 0 / Peak area at time 90 min: metopimazine incubation in human liver microsomes, full scan LC–MS
Description: To conduct the metabolic incubation in liver microsomes in the linear range, protein concentration and the reaction time were optimized.
PAR was also used for all positive control compounds.
The degree of disappearance of each analyte was evaluated by comparing the PAR of analyte to IS or concentration in different sampling time points to the PAR of time zero, (t = 0, 100%). The percent of parent remaining values were calculated according to the following equation: %parentremaining=(meanconcentrationorPARateachsamplingtimepoint/meanconcentrationorPARoftimezero)×100

[5] = cited from earlier work
[6] = plasma, individual subjects, single oral 60 mg MPZ dose

## CS(=O)(=O)c1ccc2c(c1)N(CCCN1CCC(C(N)=O)CC1)c1ccccc1S2 [MPZ, metopimazine]
[1]; individual subjects
  % Drug‐related material MPZ: 6.5% and 9.9% and 6.2% and 6.8%
[1]; mean of 4 subjects
  % Drug‐related material MPZ: 7.4%
[1]; plasma, plasma, individual subjects, single oral 60 mg MPZ dose, read-out: MPZ T max
  Tmax: 3 h
[1]; plasma, plasma, mean of 4 subjects, single oral 60 mg MPZ dose, read-out: MPZ AUClast
  AUC(0-t): 172 ng·h/mL
[1]; plasma, plasma, mean of 4 subjects, single oral 60 mg MPZ dose, read-out: MPZ C max
  Cmax: 93.9 ng/mL
[1]; plasma, plasma, mean of 4 subjects, single oral 60 mg MPZ dose, read-out: MPZ T max
  Tmax: 1.4 h
[1]; [6]
  MPZ AUClast: 111.9 ng‐h/ml and 278.2 ng‐h/ml and 129.4 ng‐h/ml and 167.5 ng‐h/ml
  MPZ C max: 38.9 ng/mL and 203 ng/mL and 75.6 ng/mL and 58.2 ng/mL
  MPZ T max: 0.75 h and 1 h
[1]
  percent of total circulating drug‐related material: less than 10%
[2]; Rat (female)
  AUC(0-inf): 13900 ng·h/mL
  Cmax: 1730 ng/mL
  Tmax: 4 h
[2]; Rat (male)
  AUC(0-inf): 8170 ng·h/mL
  Cmax: 1080 ng/mL
  Tmax: 4 h
[3]
  AUC(0-inf): 2600 ng·h/mL
  Cmax: 416 ng/mL
  Tmax: 0.83 h
[4]; 1 µM MPZ, HLM 0.5 mg/ml protein, NADPH, 60 min
  percent of parent remaining: 37.2%
[4]
  Peak area at time 0: 2373
  Peak area at time 90 min: 715
[5]
  blood–brain barrier penetration: does not penetrate the blood–brain barrier
[5]; humans, 10 mg dose of MPZ
  absolute bioavailability: under 20%

## CS(=O)(=O)c1ccc2c(c1)N(CCCN1CCC(C(=O)O)CC1)c1ccccc1S2 [MPZA, metopimazine acid]
[1]; individual subjects
  % Drug‐related material MPZA: 93.0% and 89.2% and 93.3% and 92.4%
[1]; mean of 4 subjects
  % Drug‐related material MPZA: 92.0%
[1]; plasma, 4 subjects, single oral 60 mg MPZ dose, read-out: Tmax, range over subjects
  Tmax: 1.25 to 3 h
[1]; plasma, plasma, individual subjects, single oral 60 mg MPZ dose, read-out: MPZA AUClast
  AUC(0-t): 1590 ng·h/mL
[1]; plasma, plasma, mean of 4 subjects, single oral 60 mg MPZ dose, read-out: MPZA AUClast
  AUC(0-t): 2080 ng·h/mL
[1]; plasma, plasma, mean of 4 subjects, single oral 60 mg MPZ dose, read-out: MPZA C max
  Cmax: 397 ng/mL
[1]; plasma, plasma, mean of 4 subjects, single oral 60 mg MPZ dose, read-out: MPZA T max
  Tmax: 1.8 h
[1]; [6]
  MPZA AUClast: 2506.1 ng‐h/ml and 1941.9 ng‐h/ml and 2265.8 ng‐h/ml
  MPZA C max: 241 ng/mL and 601 ng/mL and 357 ng/mL and 390 ng/mL
  MPZA T max: 3 h and 1.25 h (2×) and 1.5 h
[1]
  percent of total circulating drug‐related material: approximately 90%
[2]; Rat (female)
  AUC(0-inf): 884 ng·h/mL
  Cmax: 110 ng/mL
  Tmax: 3 h
[2]; Rat (male)
  AUC(0-inf): 755 ng·h/mL
  Cmax: 89 ng/mL
  Tmax: 4 h
[3]
  AUC(0-inf): 728 ng·h/mL
  Cmax: 103 ng/mL
  Tmax: 2 h
[4]
  Peak area at time 0: 0
  Peak area at time 90 min: 208
[5]; clinical doses of 20 and 50 mg MPZ, single dose, preprandially or postprandially
  share of circulating drug‐related material in plasma: ≥ 80%
[5]; humans
  share of circulating drug‐related material based on AUC exposure: over 90%
